According to patent US20140004062A1, “COMPOSITION INCLUDING 3-BROMO-4,5-DIHYDROXYBENZALDEHYDE COMPOUND AS EFFECTIVE COMPONENT FOR PROTECTING AND TREATING SKIN CELL AGANIST ULTRAVIOLET” (Jeju National University Industry-Academic Cooperation …, priority 2012, published 2014):

Experiments:
HaCaT cells [1] = assay: Comet assay, oxidative DNA damage; format: cell-based, human; settings: UVB-exposed cells treated with BDB; UVB alone 37%
Method: The degree of oxidative DNA damage was determined in a comet assay. Cell suspension was mixed with 75 μL of 0.5% low melting agarose (LMA) at 39° C. and the mixture was spread on a fully frosted microscopic slide pre-coated with 200 μL of 1% normal melting agarose (NMA). After solidification of the agarose, the slide was covered with another 75 μl of 0.5% LMA and then immersed in a lysis solution (2.5 M NaCl, 100 mM Na-EDTA, 10 mM Tris, 1% Trion X-100 and 10% DMSO, pH 10) for 1 h at 4° C. The slides were then placed in a gel-electrophoresis apparatus containing 300 mM NaOH and 10 mM Na-EDTA (pH 13) for 40 min to allow for DNA unwinding and the expression of the alkali-labile damage. An electrical field was then applied (300 mA, 25 V) for 20 min at 4° C. to draw the negatively charged DNA towards the anode. The slides were washed three times for 5 min at 4° C. in a neutralizing buffer (0.4 M Tris, pH 7.5), stained with 75 μL of propidium iodide (20 μg/mL) and observed using a fluorescence microscope and an image analyzer (Kinetic Imaging, Komet 5.5, UK). The percentage of total fluorescence in the DNA tails and the tail length of 50 cells per slide were recorded.

HaCaT cells [2] = assay: MTT assay, viability of UVB-exposed HaCaT cells; format: cell-based; settings: Homo sapiens, light or radiation study, UVB 1 h later, 24 h, untreated UVB cells 65%, read-out: viability of the cell exposed to UVB
Method: (§1) Human keratinocytes (HaCaT cells) were obtained from the Amore Pacific Company (Gyeonggi-do, Republic of Korea). Cells were maintained at 37° C. in an incubator with a humidified atmosphere of 5% CO2. Cells were cultured in Dulbecco's modified Eagle's medium containing 10% heat-inactivated fetal calf serum, streptomycin (100 μg/mL) and penicillin (100 unit/mL).
(§2) The effect of BDB on the viability of HaCaT cells was assessed as follows. Cells were seeded in a 96-well plate at a density of 1×10^5 cells/mL. Sixteen hours after plating, BDB was added at a concentration of at 10, 20, 30, 40, and 50 μM. To evaluate the ability of BDB to protect keratinocytes against UVB-exposure, BDB was added at a concentration of 10, and 30 μM, and cells were exposed to UVB radiation one hour later and incubated at 37° C. for 24 h. Fifty microliter of MTT stock solution (2 mg/mL) was added to each well to yield a total reaction volume of 200 μl. After incubating the cells for 4 h, the plate was centrifuged at 800×g for 5 min, and the supernatants were aspirated. The formazan crystals in each well were dissolved in dimethylsulfoxide (150 μl), and the absorbance at 540 nm was read on a scanning multi-well spectrophotometer.

HaCaT cells [3] = assay: Lipid peroxidation, DPPP fluorescent probe; format: cell-based, human; settings: UVB-irradiated cells treated with BDB
Method: (§3) A cell was exposed to UVB, and then after 24 hours, effects of BDB in inhibiting the cell membrane lipid peroxidation, a protein modification, and a cell DNA damage of UVB-irradiated cell was observed. Lipid peroxidation was assayed by the determination of 8-isoprostane levels in the culture medium. A commercial enzyme immunoassay (Cayman Chemical, Ann Arbor, Mich., USA) was employed according to the manufacturer's instructions. Lipid peroxidation was also estimated using a fluorescent probe, DPPP. Cells were incubated with 5 μM DPPP for 15 min in the dark and then exposed to UVB. DPPP fluorescence image was captured using a Zeiss Axiovert 200 inverted microscope at an excitation wavelength of 351 nm and an emission wavelength of 380 nm and quantified.

[4] = DPPH radical removal ability; format: physicochemical; settings: 3 h
Method: BDB at a concentration of 10, 20, 30 μM and 2 mM NAC were added to a 1×10^−4 M solution of DPPH in methanol. The resulting reaction mixture was shaken vigorously. After 3 h, the amount of unreacted DPPH was measured at 520 nm using a spectrophotometer.

[5] = Detection of superoxide anion, xanthine/xanthine oxidase system, ESR spectrometry; format: physicochemical; settings: BDB 30 μM; signal without BDB 2765
Method: The superoxide anion was produced via the xanthine/xanthine oxidase system and then reacted with a nitrone spin trap, DMPO. The DMPO/.OOH adducts were detected using a JES-FA electron spin resonance (ESR) spectrometer (JEOL, Tokyo, Japan). Briefly, ESR signaling was recorded 5 min after 20 μl of xanthine oxidase (0.25 U/mL) was mixed with 20 μl each of xanthine (5 mM), DMPO (1.5 M) and BDB (30 μM). The ESR spectrometer parameters were set at a magnetic field of 336 mT, power of 1.00 mW, frequency of 9.4380 GHz, modulation amplitude of 0.2 mT, gain of 500, scan time of 0.5 min, scan width of 10 mT, time constant of 0.03 sec, and temperature of 25° C.

HaCaT cells [6] = assay: Cytoplasmic histone-associated DNA fragmentation kit; format: cell-based, human; settings: UVB-irradiated cells treated with BDB
Method: Cellular DNA fragmentation was assessed by analyzing the extent of cytoplasmic histone-associated DNA fragmentation using a kit from Roche Diagnostics (Portland, Oreg., USA) according to the manufacturer's instructions. A cytoplasmic histone-associated DNA fragmentation was increased in UVB-irradiated cells as compared with control cells. The level of DNA fragmentation was decreased in UVB-irradiated cells that were treated with BDB (see FIG. 4c).

HaCaT keratinocytes [7] = assay: Intracellular ROS induced by UVB, DCF-DA method; format: cell-based, human; settings: UVB 30 mJ/cm^2, 24 h
Method: (§4) The DCF-DA method was used to detect intracellular ROS levels in HaCaT keratinocytes generated by either H2O2 or UVB radiation. For the detection of ROS in H2O2-treated cells, cells were seeded at a density of 1.5×10^5 cells/well. Sixteen hours after plating, cells were treated with BDB at a concentration of 10, 20, 30 μM and 2 mM NAC. After 30 min, H2O2 (1 mM) was added to the plate. Cells were incubated for an additional 30 min at 37° C., and DCF-DA solution (25 μM) was then added. Ten minutes after the addition of DCF-DA, the fluorescence of 2′,7′-dichlorofluorescein (DCF) was detected and quantified using a PerkinElmer LS-5B spectrofluorometer (PerkinElmer, Waltham, Mass., USA). For the detection of ROS in UVB-exposed cells, cells were treated with BDB as above. After one hour, cells were exposed to UVB radiation at a dose of 30 mJ/cm^2. […] Cells were incubated for an additional 24 h at 37° C., DCF-DA solution (25 μM) was added and detected as above.

[8] = system: infectious pancreatic necrosis virus; settings: cited from earlier work
HaCaT cells [9] = assay: Protein carbonyl formation ELISA; format: cell-based, human; settings: UVB-irradiated cells treated with BDB
Method: The amount of carbonyl formation in protein was determined using an Oxiselect™ protein carbonyl ELISA kit purchased from Cell Biolabs (San Diego, Calif., USA) according to the manufacturer's instructions.

HaCaT cells [10] = assay: Lipid peroxidation, 8-isoprostane enzyme immunoassay; format: cell-based, human; settings: UVB-exposed cells treated with BDB, 24 h; UVB alone 3.1 pg/mg
Method: as §3

[11] = Detection of hydroxyl radical, Fenton reaction, ESR spectrometry; format: physicochemical; settings: BDB 30 μM; signal without BDB 3851
Method: The hydroxyl radical was generated by the Fenton reaction (H2O2+FeSO4) and then reacted with DMPO. The resultant DMPO/.OH adducts were detected using an ESR spectrometer. The ESR spectrum was recorded 2.5 min after a phosphate buffer solution (pH 7.4) was mixed with 0.2 mL each of 0.3 M DMPO, 10 mM FeSO4, 10 mM H2O2, and BDB (30 μM). The ESR spectrometer parameters were set at a magnetic field of 336 mT, power of 1.00 mW, frequency of 9.4380 GHz, modulation amplitude of 0.2 mT, gain of 200, scan time of 0.5 min, scan width of 10 mT, time constant of 0.03 sec, and temperature of 25° C.

HaCaT cells [12] = assay: Nuclear staining with Hoechst 33342, apoptotic bodies; format: cell-based, human; settings: BDB 30 μM, UVB 1 h later, 24 h; UVB alone 16
Method: Cells were treated with BDB at a concentration of 30 μM and exposed to UVB radiation 1 h later. Cells were incubated for an additional 24 h at 37° C. Hoechst 33342 (1.5 μL of a 10 mg/mL stock), a DNA-specific fluorescent dye, was added to each well, and the cells were incubated for 10 min at 37° C. The stained cells were visualized under a fluorescence microscope equipped with a CoolSNAP-Pro color digital camera. The degree of nuclear condensation was evaluated, and the apoptotic cells were quantified.

[13] = UVB absorption analysis, ultraviolet/visible spectrophotometer; format: physicochemical
Method: To study the UVB absorption spectra of BDB, which was diluted in DMSO at a ratio 1:500 (v/v), it was scanned by UV at 200-500 nm using Biochrom Libra S22 ultraviolet/visible spectrophotometer.

[14] = system: hematopoietic necrosis virus; settings: cited from earlier work
HaCaT keratinocytes [15] = assay: Intracellular ROS induced by H2O2, DCF-DA method; format: cell-based, human; settings: H2O2 1 mM
Method: as §4

HaCaT cells [16] = assay: MTT assay, viability of HaCaT cells treated with BDB; format: cell-based, human; settings: up to the concentration of 30 μM; tested at 10-50 μM
Method: as §1, §2

HaCaT cells [17] = assay: Sub-G1 hypodiploid cells, flow cytometry; format: cell-based, human; settings: BDB 30 μM, UVB 1 h later, 24 h; UVB alone 17%, no UVB 1%
Method: Flow cytometry was performed in order to determine the apoptotic sub-G1 hypodiploid cells. Cells were treated with BDB at a concentration of 30 μM and exposed to UVB radiation 1 h later. Cells were incubated for an additional 24 h at 37° C. Cells were harvested, and fixed in 1 mL of 70% ethanol for 30 min at 4° C. Cells were washed twice with PBS, and then incubated for 30 min in the dark at 37° C. in 1 mL of PBS containing 100 μg propidium iodide and 100 μg RNase A. Flow cytometric analysis was performed using a FACS Calibur flow cytometer (Becton Dickinson, Mountain View, Calif., USA). Sub-G1 hypodiploid cells were assessed based on the histograms generated using the computer programs, Cell Quest and Mod-Fit.

[18] = UV/visible scan 200 nm to 500 nm

## O=Cc1cc(O)c(O)c(Br)c1 [BDB, 3-Bromo-4,5-dihydroxybenzaldehyde]
HaCaT cells [1]
  ratio of DNA in the tail (comet assay): 18%
HaCaT cells [2]; BDB 10 μM
  viability at 10 µM: 73%
HaCaT cells [2]; BDB 20 μM
  viability at 20 µM: 73%
HaCaT cells [2]; BDB 30 μM
  viability at 30 µM: 77%
HaCaT cells [3]
  DPPP fluorescence (lipid peroxidation): exhibited the fluorescence in the more small range
[4]; 10 μM, 1×10^−4 M DPPH in methanol
  DPPH radical scavenged: 6%
[4]; 20 μM, 1×10^−4 M DPPH in methanol
  DPPH radical scavenged: 21%
[4]; 30 μM, 1×10^−4 M DPPH in methanol
  DPPH radical scavenged: 25%
[5]
  superoxide anion signal (ESR, DMPO/.OOH adducts): 2063
HaCaT cells [6]
  level of cytoplasmic histone-associated DNA fragmentation: decreased
HaCaT keratinocytes [7]; 10 μM
  intracellular ROS induced by UVB removed: 17%
HaCaT keratinocytes [7]; 20 μM
  intracellular ROS induced by UVB removed: 22%
HaCaT keratinocytes [7]; 30 μM
  intracellular ROS induced by UVB removed: 23%
[8]
  antiviral effect: antiviral effect
HaCaT cells [9]
  carbonyl formation induced by UVB (protein carbonyl level): inhibited
HaCaT cells [10]
  8-isoprostane level (lipid peroxidation): 1.9 pg/mg
[11]
  hydroxyl radical signal (ESR, DMPO/.OH adducts): 3002
HaCaT cells [12]
  Apoptotic Index (nuclear segments, Hoechst 33342): 9
[13]; [18]
  absorption peak 1 position: 288 nm
  absorption peak 2 position: 357 nm
[13]; diluted in DMSO 1:500 (v/v), scanned at 200-500 nm
  UVB absorption ability: exhibited the absorption ability at 280 to 320 nm
[14]
  antiviral effect: antiviral effect
HaCaT keratinocytes [15]; 10 μM
  intracellular ROS induced by H2O2 removed: 64%
HaCaT keratinocytes [15]; 20 μM
  intracellular ROS induced by H2O2 removed: 67%
HaCaT keratinocytes [15]; 30 μM
  intracellular ROS induced by H2O2 removed: 70%
HaCaT cells [16]
  toxicity on human HaCaT keratinocyte (cell viability, MTT): does not exhibit toxicity
HaCaT cells [17]
  apoptotic sub-G1 DNA: 8%

## CC(=O)N[C@@H](CS)C(=O)O [NAC, N-acetyl cysteine, reference compound]
[4]; 2 mM, positive control
  DPPH radical scavenged: 89%
HaCaT keratinocytes [7]; 2 mM
  intracellular ROS induced by UVB removed: 22%
HaCaT keratinocytes [15]; 2 mM
  intracellular ROS induced by H2O2 removed: 80%
